Data published in PMC6120666 (The EMBO Journal, 2018).

Columns and labels:
NanoLuc-RIPK2 = molecular target: T1, NanoLuc-RIPK2 (Homo sapiens, UniProt O43353); assay: nanoBRET cellular RIPK2 residence time assay in HEKBlue cells; assay type: binding; settings: t1/2 for probe to engage RIPK2 after washout of inhibitor
T1 construct: host or cells: hNOD2-HEKBlue cells

recombinant RIPK2 kinase = molecular target: T2, recombinant RIPK2 kinase (Homo sapiens, UniProt O43353); assay: RIPK2 ADPGlo in vitro kinase assay; assay type: biochemical; settings: average ± SD of at least three titrations, read-out: IC50, In vitro kinase, RIPK2 ADPGIo
T2 construct: made in house
Description: The BIR2 domains of XIAP and cIAP1 were cloned into the pGEX‐6P1 vector and were expressed in E. coli (BL21) cells as a fusion protein with N‐terminal 6xHis (XIAP BIR2 only) and GST tags. Protein expression was induced with IPTG, and cells were lysed using BugBuster protein extraction reagent (#70921, Merck Millipore) according to manufacturer's instructions. Proteins were purified with the FPLC protein purification system ÄKTA PrimePlus (GE Healthcare Life Sciences) using HisTrap FF column purification followed by gel filtration (HiLoad 26/600 Superdex 75 pg (GE Healthcare Life Sciences)). Collected fractions were stored at −80°C and used for probing of peptide array membranes. Expression and purification of recombinant RIPK1‐3 was performed as previously described (Canning et al, 2015; Najjar et al, 2015). RIPK1‐3 ADPGlo kinase assays using 20 ng/well protein were performed for 2 h at room temperature also as previously described (Canning et al, 2015; Najjar et al, 2015).

RAW264.7 cells = assay: TNF ELISA, MDP-stimulated RAW264.7 cells; assay type: cell-based; settings: Mus musculus, MDP 10 μg/ml, 24 h, read-out: RAW264.7 TNF release inhibition Est. IC50
Experimental: Figure 4 Cellular and in vivo characterization of novel RIPK2 inhibitors on inflammatory signaling • A, B ELISA measurement of TNF release from RAW264.7 cells treated with MDP (10 μg/ml, 24 h) and CSLP compounds or RIPK2 inhibitor WEHI‐345 as indicated. […] After 4 h, blood was collected by cardiac puncture and circulating levels of TNF were analyzed by ELISA. Data information: Data represent the mean ± SEM of three independent experiments. **P < 0.01, n.s., not significant. Two‐tailed unpaired Student's t‐test was used to determine statistical significance. See also Fig EV3. TEXT PRINTED IN THE PICTURE: (B) CSLP37: RAW264.7 TNF release inhibition Est. IC50 (nM): 12.6; RAW264.7 TNF release inhibition St. Err.: ±1.7 | (B) CSLP43: RAW264.7 TNF release inhibition Est. IC50 (nM): 1.2; RAW264.7 TNF release inhibition St. Err.: ±0.2 | (B) CSLP48: RAW264.7 TNF release inhibition Est. IC50 (nM): NI; RAW264.7 TNF release inhibition St. Err.: ±0.2 | (B) CSLP55: RAW264.7 TNF release inhibition Est. IC50 (nM): 143.0; RAW264.7 TNF release inhibition St. Err.: ±27.1 | (B) WEHI-345: RAW264.7 TNF release inhibition Est.
Cayman Chemical Company, Ann Arbor, MI), GSK583 (#HY-100339, MedChem Express, South Brunswick, NJ), WEHI-345 (MedKoo Biosciences, Morrisville, NC), Compound A (CpA, a kind gift from TetraLogic Pharmaceuticals, Malvern, PA). Generation of the CSLP compound series is described in Suebsuwong et al. 2018 (manuscript in preparation). […]
RAW264.7 cells were seeded into 12 well plates at a density of 1.5x10^5 cells/well in 1 ml of media.
Inhibitors were diluted and added in 1 μl DMSO 15 min prior to the addition of 10 μg/ml MDP or 10 ng/ml E. coli LPS for 24 h. For TNF measurements, 100 μl of undiluted media (MDP) or 5-fold diluted media was analyzed using Duo-Set anti-mouse TNF ELISA kit (R&D Systems, Minneapolis, MN).
Values of media-only wells were subtracted and %inhibition for each compound concentration relative to the DMSO/MDP (or LPS)-treated controls were calculated. Inhibition values + StDev were fitted by non-linear regression using Prism software (GraphPad) to calculate IC50 values. […]

T2 sequence (O43353 whole entry): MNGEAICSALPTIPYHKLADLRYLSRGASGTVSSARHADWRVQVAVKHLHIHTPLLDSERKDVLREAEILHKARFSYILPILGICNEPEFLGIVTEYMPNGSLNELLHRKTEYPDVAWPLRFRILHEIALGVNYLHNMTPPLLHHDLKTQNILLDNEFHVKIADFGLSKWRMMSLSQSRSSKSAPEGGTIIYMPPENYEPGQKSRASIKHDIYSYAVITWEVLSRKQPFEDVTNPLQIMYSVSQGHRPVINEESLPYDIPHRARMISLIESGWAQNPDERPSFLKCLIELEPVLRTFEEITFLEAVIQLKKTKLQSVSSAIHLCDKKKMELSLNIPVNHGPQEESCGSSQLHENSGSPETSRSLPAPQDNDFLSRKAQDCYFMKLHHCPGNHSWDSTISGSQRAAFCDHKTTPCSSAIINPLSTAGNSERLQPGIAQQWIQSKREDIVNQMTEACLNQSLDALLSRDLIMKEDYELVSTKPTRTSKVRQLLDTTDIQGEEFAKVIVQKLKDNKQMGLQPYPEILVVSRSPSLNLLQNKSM
T1 sequence (O43353 whole entry): as above

Compound	residence time (NanoLuc-RIPK2) [min]	IC50 (recombinant RIPK2 kinase) [µM]	IC50 (RAW264.7 cells) [µM]
CCCS(=O)(=O)Nc1cc(-c2cc(-c3ccc(N4CCNCC4)cc3)cnc2N)cc(OC)c1OC [CSLP43]	107	0.0199 ± 0.0008	0.0012
COc1cc(-c2cc(-c3ccc(N4CCNCC4)cc3)cnc2N)cc(F)c1OC [CSLP55]	6.8	0.0391 ± 0.0039	0.143

Continued, values first:

residence time (NanoLuc-RIPK2) [min]	IC50 (recombinant RIPK2 kinase) [µM]	IC50 (RAW264.7 cells) [µM]	Compound
27.1	0.0163 ± 0.0046	0.0126	CCCS(=O)(=O)Nc1cc(-c2cc(-c3ccc(N4CCNCC4)cc3)cnc2N)cc(F)c1OC [CSLP37]
127	0.0535 ± 0.0057	> 1	CCCS(=O)(=O)Nc1cc(-c2cc(-c3ccc(N4CCNCC4)cc3)cnc2N)ccc1O [CSLP48]
7.5	0.0373 ± 0.0013	0.123	Cc1ccc(-c2nn(C(C)(C)CNC(=O)c3ccncc3)c3ncnc(N)c23)cc1 [WEHI‐345, reference compound]
